According to the NIST ThermoML archive (doi:10.1016/j.jct.2010.06.009):

Test: activity coefficient (dimensionless); of the first substance listed, at infinite dilution; xn = mol fraction of the nth substance listed
Details: 101 kPa, Liquid, Chromatography, x1 = 0

Cc1ccccc1C [1,2-dimethylbenzene] + CCCCC[n+]1ccccc1.O=S(=O)([N-]S(=O)(=O)C(F)(F)F)C(F)(F)F
Details | activity coefficient
303.1 K | 1.57
312.8 K | 1.61
323.4 K | 1.63
333.4 K | 1.65
343.3 K | 1.66
353.5 K | 1.69

Cc1ccccc1C [1,2-dimethylbenzene] + CCCC[n+]1ccccc1.O=S(=O)([N-]S(=O)(=O)C(F)(F)F)C(F)(F)F
Details | activity coefficient
302.8 K | 2.22
312.5 K | 2.25
323.3 K | 2.26
333.3 K | 2.28
343.2 K | 2.28
353.2 K | 2.3

Cc1ccccc1C [1,2-dimethylbenzene] + CC[n+]1ccccc1.O=S(=O)([N-]S(=O)(=O)C(F)(F)F)C(F)(F)F
Details | activity coefficient
303.1 K | 2.66
313.2 K | 2.67
323.3 K | 2.68
333.1 K | 2.7
343.1 K | 2.7
353.1 K | 2.71

Cc1cccc(C)c1 [1,3-dimethylbenzene] + CCCCC[n+]1ccccc1.O=S(=O)([N-]S(=O)(=O)C(F)(F)F)C(F)(F)F
Details | activity coefficient
303 K | 1.76
312.8 K | 1.8
323.5 K | 1.81
333.4 K | 1.84
343.3 K | 1.87
353.3 K | 1.91

Cc1cccc(C)c1 [1,3-dimethylbenzene] + CCCC[n+]1ccccc1.O=S(=O)([N-]S(=O)(=O)C(F)(F)F)C(F)(F)F
Details | activity coefficient
302.8 K | 2.47
312.5 K | 2.49
323.3 K | 2.5
333.3 K | 2.51
343.1 K | 2.52
353.3 K | 2.53

Cc1cccc(C)c1 [1,3-dimethylbenzene] + CC[n+]1ccccc1.O=S(=O)([N-]S(=O)(=O)C(F)(F)F)C(F)(F)F
Details | activity coefficient
302.8 K | 3.07
313.2 K | 3.09
323.2 K | 3.1
333.1 K | 3.11
343 K | 3.12
353.1 K | 3.13

Cc1ccc(C)cc1 [1,4-dimethylbenzene] + CCCCC[n+]1ccccc1.O=S(=O)([N-]S(=O)(=O)C(F)(F)F)C(F)(F)F
Details | activity coefficient
303.1 K | 1.74
312.7 K | 1.79
323.5 K | 1.81
333.4 K | 1.84
343.3 K | 1.87
353.3 K | 1.91

Cc1ccc(C)cc1 [1,4-dimethylbenzene] + CCCC[n+]1ccccc1.O=S(=O)([N-]S(=O)(=O)C(F)(F)F)C(F)(F)F
Details | activity coefficient
302.8 K | 2.45
312.5 K | 2.48
323.3 K | 2.49
333.3 K | 2.52
343.1 K | 2.54
353.3 K | 2.54

Cc1ccc(C)cc1 [1,4-dimethylbenzene] + CC[n+]1ccccc1.O=S(=O)([N-]S(=O)(=O)C(F)(F)F)C(F)(F)F
Details | activity coefficient
302.6 K | 3.04
313.3 K | 3.05
323.2 K | 3.07
333.1 K | 3.08
343 K | 3.09
353.1 K | 3.11

C=CCCCCCCCC [1-decene] + CCCCC[n+]1ccccc1.O=S(=O)([N-]S(=O)(=O)C(F)(F)F)C(F)(F)F
Details | activity coefficient
303.1 K | 26.4
312.6 K | 25.1
322.6 K | 23.8
333.4 K | 22.1
343.4 K | 20.6
353.4 K | 19.3

C=CCCCCCCCC [1-decene] + CCCC[n+]1ccccc1.O=S(=O)([N-]S(=O)(=O)C(F)(F)F)C(F)(F)F
Details | activity coefficient
302.5 K | 46.7
313.2 K | 40.1
322.8 K | 39.6
332.8 K | 34.6
342.9 K | 31.2
353 K | 28.1

C=CCCCCCCCC [1-decene] + CC[n+]1ccccc1.O=S(=O)([N-]S(=O)(=O)C(F)(F)F)C(F)(F)F
Details | activity coefficient
302.9 K | 85.8
313.2 K | 77.2
323.2 K | 70
332.8 K | 62.7
342.9 K | 54.5
353 K | 46.9

C#CCCCCC [1-heptyne] + CCCCC[n+]1ccccc1.O=S(=O)([N-]S(=O)(=O)C(F)(F)F)C(F)(F)F
Details | activity coefficient
302.8 K | 4.17
313.6 K | 4
323.4 K | 3.87
333.3 K | 3.74
343.3 K | 3.58
353.3 K | 3.42

C#CCCCCC [1-heptyne] + CCCC[n+]1ccccc1.O=S(=O)([N-]S(=O)(=O)C(F)(F)F)C(F)(F)F
Details | activity coefficient
302.8 K | 5.63
313.3 K | 5.49
323.2 K | 5.29
333.1 K | 5.03
343.1 K | 4.79
353.1 K | 4.58

C#CCCCCC [1-heptyne] + CC[n+]1ccccc1.O=S(=O)([N-]S(=O)(=O)C(F)(F)F)C(F)(F)F
Details | activity coefficient
302.5 K | 8.41
313.2 K | 7.96
323 K | 7.5
333 K | 7.06
342.9 K | 6.53
353 K | 5.92

C#CCCCC [1-hexyne] + CCCCC[n+]1ccccc1.O=S(=O)([N-]S(=O)(=O)C(F)(F)F)C(F)(F)F
Details | activity coefficient
302.8 K | 2.92
313.6 K | 2.82
323.4 K | 2.66
333.3 K | 2.53
343.3 K | 2.42
353.3 K | 2.29

C#CCCCC [1-hexyne] + CCCC[n+]1ccccc1.O=S(=O)([N-]S(=O)(=O)C(F)(F)F)C(F)(F)F
Details | activity coefficient
303.5 K | 3.92
313.3 K | 3.72
323.2 K | 3.5
333.1 K | 3.29
343.1 K | 3.04
353.1 K | 2.82

C#CCCCC [1-hexyne] + CC[n+]1ccccc1.O=S(=O)([N-]S(=O)(=O)C(F)(F)F)C(F)(F)F
Details | activity coefficient
302.5 K | 5.26
313.2 K | 4.95
323 K | 4.63
333 K | 4.18
342.9 K | 3.88
353 K | 3.47

C#CCCCCCC [1-octyne] + CCCCC[n+]1ccccc1.O=S(=O)([N-]S(=O)(=O)C(F)(F)F)C(F)(F)F
Details | activity coefficient
302.8 K | 5.62
313.6 K | 5.47
323.4 K | 5.34
333.3 K | 5.22
343.4 K | 5.07
353.3 K | 4.94

C#CCCCCCC [1-octyne] + CCCC[n+]1ccccc1.O=S(=O)([N-]S(=O)(=O)C(F)(F)F)C(F)(F)F
Details | activity coefficient
302.6 K | 8.1
313.4 K | 7.82
323.2 K | 7.6
333.1 K | 7.34
343.1 K | 7.05
353.1 K | 6.8

C#CCCCCCC [1-octyne] + CC[n+]1ccccc1.O=S(=O)([N-]S(=O)(=O)C(F)(F)F)C(F)(F)F
Details | activity coefficient
302.5 K | 12.9
313.2 K | 12.3
323 K | 11.8
333 K | 11.1
342.9 K | 10.4
353 K | 9.74

C#CCCC [1-pentyne] + CCCCC[n+]1ccccc1.O=S(=O)([N-]S(=O)(=O)C(F)(F)F)C(F)(F)F
Details | activity coefficient
302.8 K | 2.01
313.5 K | 1.88
323.4 K | 1.75
333.3 K | 1.62
343.2 K | 1.5
353.4 K | 1.39

C#CCCC [1-pentyne] + CCCC[n+]1ccccc1.O=S(=O)([N-]S(=O)(=O)C(F)(F)F)C(F)(F)F
Details | activity coefficient
302.2 K | 2.67
313.4 K | 2.4
323.2 K | 2.23
333.1 K | 2.04
343 K | 1.88
353.1 K | 1.68

C#CCCC [1-pentyne] + CC[n+]1ccccc1.O=S(=O)([N-]S(=O)(=O)C(F)(F)F)C(F)(F)F
Details | activity coefficient
302.5 K | 3.2
313.2 K | 3
323 K | 2.73
333 K | 2.52
342.9 K | 2.23
353.1 K | 2.03
